Measurements as given in EPA's ToxRefDB 2.

Legend:
[1] = test system: rat; details: Prenatal developmental toxicity study; fischer; Inhalation; Whole-Body; dose end: 15 GD; group: maternal; systemic / in life observation / body weight / body weight + systemic / in life observation / body weight / body weight gain + systemic / in…
[2] = test system: rat; details: Subchronic oral toxicity in rodents, fischer, Inhalation, Whole-Body, dose end: 13 week, group: systemic
[3] = test system: rabbit; details: Prenatal developmental toxicity study; new zealand white; Inhalation; Whole-Body; dose end: 18 GD; group: maternal; systemic / in life observation / body weight / body weight gain
[4] = test system: rat; details: Sub-acute repeat dose toxicity, other, Inhalation, Nose-Only, dose end: 14 day, group: systemic
[5] = test system: rabbit; details: Prenatal developmental toxicity study, new zealand white, Oral, Gavage/Intubation, dose end: 19 GD
[6] = test system: rat; details: Prenatal developmental toxicity study, other, Inhalation, Nose-Only, dose end: 16 GD
[7] = test system: mouse; details: Prenatal developmental toxicity study, cd1, Oral, Gavage/Intubation, dose end: 15 GD
[8] = test system: rabbit; details: Prenatal developmental toxicity study, new zealand white, Oral, Gavage/Intubation, dose end: 19 GD; remark: listed apart in the source
[9] = test system: rat; details: Multigenerational reproductive toxicity study, wistar, Oral, Feed, dose end: 2 generation
[10] = test system: rat; details: Subchronic inhalation toxicity, sprague dawley, Nose-Only, dose end: 13 week, group: systemic
[11] = test system: rat; details: Subchronic oral toxicity in rodents, sprague dawley, Feed, dose end: 13 week, group: systemic, systemic / clinical chemistry / calcium / calcium + systemic / pathology microscopic / liver / accentuated lobular pattern + systemic / …
[12] = test system: mouse; details: Multigenerational reproductive toxicity study, cd1, Oral, Feed, dose end: 2 generation, group: offspring
[13] = test system: mouse; details: Combined chronic toxicity/carcinogenicity, cd1, Oral, Feed, dose end: 78 week, group: systemic
[14] = test system: rat; details: Carcinogenicity, fischer, Oral, Feed, dose end: 107 week, group: systemic
[15] = test system: mouse; details: Carcinogenicity, b6c3f1, Oral, Feed, dose end: 112 week, group: systemic
[16] = test system: rat; details: Combined chronic toxicity/carcinogenicity, sprague dawley, Oral, [Not Specified], dose end: 24 month, group: systemic
[17] = test system: dog; details: Chronic toxicity; beagle; Oral; Feed; dose end: 12 month; group: systemic; systemic / clinical chemistry / alkaline phosphatase (alp/alk) / alkaline phosphatase (alp/alk) + systemic / in life observation / body …
[18] = test system: rat; details: Subchronic oral toxicity in rodents, fischer, Feed, dose end: 13 week, group: systemic, systemic / clinical chemistry / thyroxine (t4) / thyroxine (t4), total + systemic / in life observation / body weight / body weight + …
[19] = test system: rat; details: Prenatal developmental toxicity study, sprague dawley, Oral, Gavage/Intubation, dose end: 15 GD
[20] = test system: rat; details: Prenatal developmental toxicity study, sprague dawley, Oral, Gavage/Intubation, dose end: 15 GD; remark: listed apart in the source
[21] = test system: rat; details: Subchronic dermal toxicity, sprague dawley, Topical, dose end: 90 day, group: systemic, systemic / in life observation / clinical signs / erythema + systemic / in life observation / clinical signs / scabbing + systemic / …
[22] = systemic / clinical chemistry / alanine aminotransferase (alt/sgpt) / alanine aminotransferase (alt/sgpt) + systemic / clinical chemistry / …
[23] = systemic / in life observation / clinical signs / urogenital staining + systemic / organ weight / kidney / relative to body weight
[24] = systemic / hematology / leukocyte (wbc) count differential / leukocyte (wbc) + systemic / in life observation / body weight / body weight + …
[25] = group: developmental, developmental / developmental malformation / bone / fused + developmental / developmental malformation / kidney / hydronephrosis + …
[26] = group: maternal, reproductive / reproductive performance / resorptions / resorptions + systemic / in life observation / body weight / body weight gain + …
[27] = group: developmental, developmental / developmental malformation / bone / incomplete ossification + developmental / developmental malformation / bone / short …
[28] = group: maternal, reproductive / reproductive performance / resorptions / resorptions + systemic / in life observation / body weight / body weight + systemic…
[29] = group: developmental, developmental / developmental malformation / bone / [other] + developmental / developmental malformation / bone / absent + developmental / …
[30] = group: developmental, systemic / in life observation / body weight / fetal weight
[31] = group: maternal, reproductive / reproductive performance / postimplantation loss / postimplantation loss + reproductive / reproductive performance / …
[32] = group: maternal, reproductive / reproductive performance / aborted / aborted + systemic / in life observation / body weight / body weight + systemic / in …
[33] = group: offspring, systemic / in life observation / body weight / offspring (pup) weight + systemic / organ weight / spleen / absolute + systemic / organ …
[34] = group: parental, systemic / pathology microscopic / stomach / hyperkeratosis + systemic / pathology microscopic / stomach / hyperplasia + systemic / …
[35] = systemic / in life observation / body weight / body weight + systemic / in life observation / clinical signs / [other] + systemic / in life …
[36] = systemic / organ weight / kidney / relative to body weight + systemic / organ weight / liver / relative to body weight + systemic / organ …
[37] = systemic / organ weight / liver / relative to body weight
[38] = systemic / in life observation / body weight / body weight
[39] = systemic / in life observation / body weight / body weight + systemic / in life observation / clinical signs / alopecia
[40] = systemic / clinical chemistry / cholesterol / cholesterol + systemic / organ weight / liver / absolute + systemic / organ weight / liver / …
[41] = group: developmental, developmental / developmental malformation / bone / full supernumerary + developmental / developmental malformation / bone / incomplete …
[42] = group: maternal, systemic / hematology / erythrocyte (rbc) count differential / erythrocyte (rbc) + systemic / hematology / reticulocyte / reticulocyte + …
[43] = group: developmental, developmental / developmental malformation / kidney / dilatation + developmental / developmental malformation / ureter / distended
[44] = group: maternal, systemic / in life observation / body weight / body weight

SMILES: CCCCCCOCCO [2-(Hexyloxy)ethanol]
- LEL [1]: 79.2 ppm
- LOAEL [1]: > 79.2 ppm
- NEL [1]: 41.1 ppm
- NOAEL [1]: ≥ 79.2 ppm
- LOAEL [2, 22]: > 71 ppm
- NOAEL [2, 22]: ≥ 71 ppm
- LEL [2, 23]: 20 ppm
- NEL [2, 23]: < 20 ppm
- LEL [3]: 79.2 ppm
- LOAEL [3]: > 79.2 ppm
- NEL [3]: 41.1 ppm
- NOAEL [3]: ≥ 79.2 ppm

SMILES: COCCOCCOC [Bis(2-methoxyethyl) ether]
- LOAEL [4, 22]: > 1000 ppm
- NOAEL [4, 22]: ≥ 1000 ppm
- LEL [4, 24]: 100 ppm
- NEL [4, 24]: < 100 ppm
- LOAEL [5, 25]: > 175 mg/kg/day
- NEL [5, 25]: 25 mg/kg/day
- NOAEL [5, 25]: ≥ 175 mg/kg/day
- LEL ([5]; group: developmental, developmental / developmental malformation / limb / [other]): 50 mg/kg/day
- LOAEL [5, 26]: > 175 mg/kg/day
- NEL [5, 26]: 25 mg/kg/day
- NOAEL [5, 26]: ≥ 175 mg/kg/day
- LEL ([5]; group: maternal, systemic / in life observation / body weight / body weight gain): 50 mg/kg/day
- LEL [6, 27]: 25 ppm
- LOAEL [6, 27]: > 400 ppm
- NEL [6, 27]: < 25 ppm
- NOAEL [6, 27]: ≥ 400 ppm
- LOAEL [6, 28]: > 400 ppm
- NEL [6, 28]: 25 ppm
- NOAEL [6, 28]: ≥ 400 ppm
- LEL ([6]; group: maternal, systemic / in life observation / food consumption / food consumption + systemic / organ weight / liver / absolute + systemic / organ weight…): 100 ppm
- LOAEL [7, 29]: > 500 mg/kg/day
- NEL [7, 29]: 62.5 mg/kg/day
- NOAEL [7, 29]: ≥ 500 mg/kg/day
- LEL [7, 30]: 125 mg/kg/day
- LOAEL [7, 31]: > 500 mg/kg/day
- NEL [7, 31]: 125 mg/kg/day
- NOAEL [7, 31]: ≥ 500 mg/kg/day
- LEL ([7]; group: maternal, reproductive / reproductive performance / postimplantation loss / postimplantation loss + systemic / in life observation / body weight / …): 250 mg/kg/day

SMILES: CCCCCCCCn1sccc1=O [Octhilinone]
- LEL [8, 30]: 80 mg/kg/day
- LOAEL [8, 30]: 80 mg/kg/day
- NEL [8, 30]: 20 mg/kg/day
- NOAEL [8, 30]: 20 mg/kg/day
- LEL [8, 32]: 80 mg/kg/day
- LOAEL [8, 32]: 80 mg/kg/day
- NEL [8, 32]: 20 mg/kg/day
- NOAEL [8, 32]: 20 mg/kg/day
- LOAEL [9, 33]: 111 mg/kg/day
- NEL [9, 33]: 14 mg/kg/day
- NOAEL [9, 33]: 45 mg/kg/day
- LEL ([9]; group: offspring, systemic / organ weight / spleen / relative to body weight): 45 mg/kg/day
- LOAEL ([9]; group: parental, systemic / pathology microscopic / stomach / hyperkeratosis + systemic / pathology microscopic / stomach / hyperplasia): 96 mg/kg/day
- LEL [9, 34]: 96 mg/kg/day
- NEL [9, 34]: 43 mg/kg/day
- NOAEL [9, 34]: 43 mg/kg/day
- LEL [10, 35]: 0.73 ppm
- LOAEL [10, 35]: 0.73 ppm
- NOAEL [10, 35]: 0.0733 ppm
- NEL ([10]; systemic / in life observation / clinical signs / respiration (rales) + systemic / pathology microscopic / nose / [other]): 0.0733 ppm

SMILES: CCCCCCCCOC(=O)c1ccccc1C(=O)OCCCCCCCC [Dioctyl phthalate]
- LEL [11]: 350 mg/kg/day
- LOAEL [11]: > 350 mg/kg/day
- NEL [11]: 36.8 mg/kg/day
- NOAEL [11]: ≥ 350 mg/kg/day
- NEL ([12]; systemic / organ weight / kidney / relative to body weight + systemic / organ weight / liver / relative to body weight): 3600 mg/kg/day
- LEL [12, 36]: 7500 mg/kg/day
- LOAEL [12, 36]: > 7500 mg/kg/day
- NOAEL [12, 36]: ≥ 7500 mg/kg/day

SMILES: CCCCOCCOCCOCc1cc2c(cc1CCC)OCO2 [Piperonyl butoxide]
- LEL [13, 37]: 30 mg/kg/day
- NEL [13, 37]: < 30 mg/kg/day
- NOAEL ([13]; systemic / organ weight / liver / relative to body weight + systemic / pathology microscopic / liver / adenoma): 30 mg/kg/day
- LOAEL ([13]; systemic / organ weight / liver / relative to body weight + systemic / pathology microscopic / liver / hypertrophy): 100 mg/kg/day
- LEL [14, 38]: 250 mg/kg/day
- LOAEL [14, 38]: 500 mg/kg/day
- NEL [14, 38]: < 250 mg/kg/day
- NOAEL ([14]; systemic / in life observation / body weight / body weight + systemic / pathology gross / full gross necropsy / lymphoma nos): 250 mg/kg/day
- LOAEL [15, 38]: 155 mg/kg/day
- NOAEL [15, 38]: < 155 mg/kg/day
- LEL [15, 39]: 155 mg/kg/day
- NEL [15, 39]: < 155 mg/kg/day
- LOAEL [16, 40]: 100 mg/kg/day
- NEL [16, 40]: 15 mg/kg/day
- NOAEL [16, 40]: 30 mg/kg/day
- LEL ([16]; systemic / organ weight / liver / absolute + systemic / organ weight / liver / relative to brain weight + systemic / pathology gross / …): 30 mg/kg/day
- LEL [17]: 15.5 mg/kg/day
- LOAEL [17]: 15.5 mg/kg/day
- NEL [17]: 2.9 mg/kg/day
- NOAEL [17]: 2.9 mg/kg/day

SMILES: CCCCOCCOC(=O)COc1ccc(Cl)cc1Cl [2,4-D-Butotyl]
- LEL [18]: 145 mg/kg/day
- LOAEL [18]: 145 mg/kg/day
- NEL [18]: 22 mg/kg/day
- NOAEL [18]: 22 mg/kg/day
- LEL [19, 41]: 185 mg/kg/day
- LOAEL [19, 41]: 185 mg/kg/day
- NEL [19, 41]: 75 mg/kg/day
- NOAEL [19, 41]: 75 mg/kg/day
- LEL [19, 42]: 185 mg/kg/day
- LOAEL [19, 42]: 185 mg/kg/day
- NEL [19, 42]: 75 mg/kg/day
- NOAEL [19, 42]: 75 mg/kg/day

SMILES: CCN1CN(CC)CN(CC)C1 [1,3,5-Triethylhexahydro-s-triazine]
- LEL [20, 43]: 150 mg/kg/day
- LOAEL [20, 43]: 150 mg/kg/day
- NEL [20, 43]: 75 mg/kg/day
- NOAEL [20, 43]: 75 mg/kg/day
- LEL [20, 44]: 150 mg/kg/day
- LOAEL [20, 44]: 150 mg/kg/day
- NEL [20, 44]: 75 mg/kg/day
- NOAEL [20, 44]: 75 mg/kg/day
- LEL [21]: 10 mg/kg/day
- LOAEL [21]: 10 mg/kg/day
- NEL [21]: < 10 mg/kg/day
- NOAEL [21]: < 10 mg/kg/day
